Measured values published in ChEMBL document CHEMBL5537132, “Reassessing the putative molecular Target(s) of potent antitubercular 2-(Alkylsulfonyl)acetamides” (2024).
≈ marks a conversion by molar mass, not a printed value.

Each compound was assayed on Mycobacterium tuberculosis (assay: Antitubercular activity against Mycobacterium tuberculosis H37Rv assessed as minimum inhibitory concentration incubated for 5 days by resazurin staining based fluorescent plate reader analysis). Settings: 120 h, time 5 day.
Assay type: functional

Structure (SMILES)	MIC90 [µg/mL]
CCCCCCCCCCS(=O)(=O)CC(N)=O	1.32 (≈ 5.01 µM)
CCCCCCCCCCS(=O)(=O)Cc1cn(C[C@H]2O[C@H](OCc3ccccc3)[C@@H](O)[C@@H](O)[C@@H]2O)nn1	> 50
CCCCCCCCCCS(=O)(=O)Cc1cn(CCCCn2c(=O)oc3ccccc32)nn1	> 50
CCCCCCCCCCS(=O)(=O)Cc1nc2ccccc2oc1=O	5.85 (≈ 16 µM)
CCCCCCCCCCCS(=O)(=O)CC(N)=O	1.39 (≈ 5.01 µM)
CCCCCCCCCCS(=O)(=O)CC(=O)NC[C@H]1O[C@H](OCc2ccccc2)[C@@H](O)[C@@H](O)[C@@H]1O	> 50
NC(=O)CS(=O)(=O)CCCCCCCCCCc1ccccc1	13 (≈ 38.3 µM)
CCCCCCCCCCS(=O)(=O)Cc1cn(CCCn2cnc3ccccc32)nn1	> 50
CCCCCCCCCCS(=O)(=O)Cc1cn(C[C@H]2O[C@@H](n3cnc4c(N)ncnc43)[C@H](O)[C@@H]2O)nn1	> 50
NC(=O)CS(=O)(=O)Cc1ccccc1	> 50
NC(=O)CS(=O)(=O)CCCCCCCCc1ccccc1	16 (≈ 51.4 µM)

Each compound was assayed on Mycobacterium tuberculosis (assay: Antitubercular activity against Mycobacterium tuberculosis H37Rv assessed as inhibition of bacterial growth by BACTEC radiometric assay). Settings: not given.
Assay type: functional

Structure (SMILES)	MIC [µg/mL]
NC(=O)CS(=O)(=O)CCCCc1ccccc1	> 25
CCCCCCCCS(=O)(=O)CC(=O)O	> 25
NC(=O)CS(=O)(=O)CCCCCc1ccccc1	12.5 (≈ 46.4 µM)
NC(=O)CS(=O)(=O)CCCCCCC1C=CC=CC1 (stereo not drawn)	12.5 (≈ 43.8 µM)

These compounds were tested on Mycobacterium tuberculosis (assay: Antitubercular activity against Mycobacterium tuberculosis). Settings: not given.
Assay type: functional

Structure (SMILES)	MIC [µM]
CCCCCCS(=O)(=O)CC(N)=O	241 (≈ 50 µg/mL)
NC(=O)CS(=O)(=O)CCCCc1ccccc1	> 100
CCCCCCCCS(=O)(=O)CC(N)=O	27 (≈ 6.35 µg/mL)
CCCCCCCCCCCCCCCCCCS(=O)(=O)CC(N)=O	> 133
CCCCCCCCCCS(=O)(=O)CC(N)=O	2.9 (≈ 0.764 µg/mL)
CCCCCCCS(=O)(=O)CC(N)=O	> 113
CCCCCCCCCCCCS(=O)(=O)CC(N)=O	43 (≈ 12.5 µg/mL)
CCCCCCCCCCCC(=O)NS(=O)(=O)OC[C@H]1O[C@@H](n2cnc3c(N)ncnc32)[C@H](O)[C@@H]1O	0.2 (≈ 0.106 µg/mL)
NC(=O)CS(=O)(=O)CCCCCc1ccccc1	46 (≈ 12.4 µg/mL)
CCCCCCCCCS(=O)(=O)CC(N)=O	12 (≈ 2.99 µg/mL)
CCCCCCCCCCCCOP(=O)(O)OC[C@H]1O[C@@H](n2cnc3c(N)ncnc32)[C@H](O)[C@@H]1O	1.9 (≈ 0.98 µg/mL)
Nc1ncnc2c1ncn2[C@@H]1O[C@H](COS(=O)(=O)NC(=O)CCCCCCCCCCOc2ccccc2)[C@@H](O)[C@H]1O	3.1 (≈ 1.88 µg/mL)
CCCCCCCCCOCC(=O)NS(=O)(=O)OC[C@H]1O[C@@H](n2cnc3c(N)ncnc32)[C@H](O)[C@@H]1O	0.1 (≈ 0.0531 µg/mL)
[N-]=[N+]=NCCCCCCCCCCCC(=O)NS(=O)(=O)OC[C@H]1O[C@@H](n2cnc3c(N)ncnc32)[C@H](O)[C@@H]1O	0.2 (≈ 0.114 µg/mL)
NC(=O)CS(=O)(=O)CCCCCCC1C=CC=CC1 (stereo not drawn)	44 (≈ 12.6 µg/mL)
CCCCCCCCCCCCCCCCCCCCOP(=O)(O)OC[C@H]1O[C@@H](n2cnc3c(N)ncnc32)[C@H](O)[C@@H]1O	0.9 (≈ 0.565 µg/mL)

What follows are compounds tested on Mycobacterium tuberculosis (assay: Antitubercular activity against Mycobacterium tuberculosis H37Rv assessed as bacterial growth incubated for 5 days by resazurin staining based fluorescent plate reader analysis relative to control). Settings: time 5 day.
Assay type: functional

Structure (SMILES)	Activity [%]
CCCCCCCCCCS(=O)(=O)CC(=O)NC[C@H]1O[C@@H](n2cnc3c(N)ncnc32)[C@H](O)[C@@H]1O	100

What follows are compounds tested on Mycobacterium tuberculosis (assay: Antitubercular activity against Mycobacterium tuberculosis H37Rv assessed as inhibition of bacterial growth by colorimetric microdilution broth assay). Settings: not given.
Assay type: functional

Structure (SMILES)	MIC [µg/mL]
NC[C@H]1O[C@@H](n2cnc3c(N)ncnc32)[C@H](O)[C@@H]1O	> 100
